Experimental data as given in ChEMBL document CHEMBL1201862, “PubChem BioAssay data set” (2004).
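Interpolation was linear, between the two tested concentrations surrounding the appropriate level; five concentrations were tested over 48 hours in 96-well plates. The concentration for 50% growth inhibition is given as GI50.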 Calls of active or inactive are those of the source. Rule as the data show it: active = GI50 up to about 1.1 µM and inactive = higher.

Experiments:
Experiment in all cases: NCI anticancer screen, dose series, 48 h
SNB-19 = tested on: SNB-19
KM12 = tested on: KM12
RXF 631 = tested on: RXF 631
SK-MEL-2 = tested on: SK-MEL-2
A498 = tested on: A498
DMS-273 = tested on: DMS-273
SNB-78 = tested on: SNB-78
NCI-H460 = tested on: NCI-H460
SNB-75 = tested on: SNB-75
UACC-62 = tested on: UACC-62
U-251 = tested on: U-251
CAKI-1 = tested on: CAKI-1
SF-268 = tested on: SF-268
SR = tested on: SR
HOP-62 = tested on: HOP-62
A549 = tested on: A549
NCI-H23 = tested on: NCI-H23
Malme-3M = tested on: Malme-3M
KM-20L2 = tested on: KM-20L2
IGROV-1 = tested on: IGROV-1
SF-539 = tested on: SF-539
NCI-H226 = tested on: NCI-H226
SW-620 = tested on: SW-620
HT-29 = tested on: HT-29
EKVX = tested on: EKVX
OVCAR-5 = tested on: OVCAR-5
SK-MEL-5 = tested on: SK-MEL-5
HCT-116 = tested on: HCT-116
LXFL 529 = tested on: LXFL 529
CCRF-CEM = tested on: CCRF-CEM
RPMI-8226 = tested on: RPMI-8226
K562 = tested on: K562
M14 = tested on: M14
M19-MEL = tested on: M19-MEL
786-0 = tested on: 786-0
OVCAR-3 = tested on: OVCAR-3
HOP-92 = tested on: HOP-92
COLO 205 = tested on: COLO 205
MOLT-4 = tested on: MOLT-4
UO-31 = tested on: UO-31
HCT-15 = tested on: HCT-15
ACHN = tested on: ACHN
XF498 = tested on: XF498
DLD-1 = tested on: DLD-1
OVCAR-8 = tested on: OVCAR-8
SN12C = tested on: SN12C
DMS-114 = tested on: DMS-114
NCI-H522 = tested on: NCI-H522
SK-OV-3 = tested on: SK-OV-3
LOX IMVI = tested on: LOX IMVI
RXF 393 = tested on: RXF 393
SF-295 = tested on: SF-295
UACC-257 = tested on: UACC-257
OVCAR-4 = tested on: OVCAR-4
HL-60 = tested on: HL-60
TK-10 = tested on: TK-10
SK-MEL-28 = tested on: SK-MEL-28
HCC 2998 = tested on: HCC 2998

Compound: CCOC(=O)C(=O)Nc1c(N(CC)CC)n2ccccc2nc1=O
- GI50 (SNB-19): > 100 µM (inactive)
- GI50 (KM12): > 100 µM (inactive)
- GI50 (RXF 631): > 100 µM (inactive)
- GI50 (SK-MEL-2): > 100 µM (inactive)
- GI50 (A498): > 100 µM (inactive)
- GI50 (DMS-273): > 100 µM (inactive)
- GI50 (SNB-78): > 100 µM (inactive)
- GI50 (NCI-H460): > 100 µM (inactive)
- GI50 (SNB-75): > 100 µM (inactive)
- GI50 (UACC-62): > 100 µM (inactive)
- GI50 (U-251): > 100 µM (inactive)
- GI50 (CAKI-1): > 100 µM (inactive)
- GI50 (SF-268): > 100 µM (inactive)
- GI50 (SR): > 100 µM (inactive)
- GI50 (HOP-62): > 100 µM (inactive)
- GI50 (A549): > 100 µM (inactive)
- GI50 (NCI-H23): > 100 µM (inactive)
- GI50 (Malme-3M): > 100 µM (inactive)
- GI50 (KM-20L2): > 100 µM (inactive)
- GI50 (IGROV-1): > 100 µM (inactive)
- GI50 (SF-539): > 100 µM (inactive)
- GI50 (NCI-H226): > 100 µM (inactive)
- GI50 (SW-620): > 100 µM (inactive)
- GI50 (HT-29): > 100 µM (inactive)
- GI50 (EKVX): > 100 µM (inactive)
- GI50 (OVCAR-5): > 100 µM (inactive)
- GI50 (SK-MEL-5): > 100 µM (inactive)
- GI50 (HCT-116): > 100 µM (inactive)
- GI50 (LXFL 529): > 100 µM (inactive)
- GI50 (CCRF-CEM): > 100 µM (inactive)
- GI50 (RPMI-8226): > 100 µM (inactive)
- GI50 (K562): > 100 µM (inactive)
- GI50 (M14): > 100 µM (inactive)
- GI50 (M19-MEL): > 100 µM (inactive)
- GI50 (786-0): > 100 µM (inactive)
- GI50 (OVCAR-3): > 100 µM (inactive)
- GI50 (HOP-92): > 100 µM (inactive)
- GI50 (COLO 205): > 100 µM (inactive)
- GI50 (MOLT-4): > 100 µM (inactive)
- GI50 (UO-31): > 100 µM (inactive)
- GI50 (HCT-15): > 100 µM
- GI50 (ACHN): > 100 µM (inactive)
- GI50 (XF498): > 100 µM (inactive)
- GI50 (DLD-1): > 100 µM (inactive)
- GI50 (OVCAR-8): > 100 µM (inactive)
- GI50 (SN12C): > 100 µM (inactive)
- GI50 (DMS-114): > 100 µM (inactive)
- GI50 (NCI-H522): > 100 µM (inactive)
- GI50 (SK-OV-3): > 100 µM (inactive)

Compound: COC(=O)/C(=C/c1ccc(OC)cc1)C(C(=O)O)=C1CCCCC1
- GI50 (SNB-19): > 100 µM (inactive)
- GI50 (KM12): > 100 µM (inactive)
- GI50 (RXF 631): > 100 µM (inactive)
- GI50 (SK-MEL-2): > 100 µM (inactive)
- GI50 (A498): > 100 µM (inactive)
- GI50 (DMS-273): > 100 µM (inactive)
- GI50 (SNB-78): > 100 µM (inactive)
- GI50 (LOX IMVI): > 100 µM (inactive)
- GI50 (NCI-H460): > 100 µM (inactive)
- GI50 (SNB-75): > 100 µM (inactive)
- GI50 (RXF 393): > 100 µM (inactive)
- GI50 (UACC-62): > 100 µM (inactive)
- GI50 (U-251): > 100 µM (inactive)
- GI50 (CAKI-1): > 100 µM (inactive)
- GI50 (SR): > 100 µM (inactive)
- GI50 (HOP-62): > 100 µM (inactive)
- GI50 (A549): > 100 µM (inactive)
- GI50 (NCI-H23): > 100 µM (inactive)
- GI50 (KM-20L2): > 100 µM (inactive)
- GI50 (IGROV-1): > 100 µM (inactive)
- GI50 (SF-539): > 100 µM (inactive)
- GI50 (NCI-H226): > 100 µM (inactive)
- GI50 (SW-620): > 100 µM (inactive)
- GI50 (HT-29): > 100 µM (inactive)
- GI50 (SF-295): > 100 µM (inactive)
- GI50 (EKVX): > 100 µM (inactive)
- GI50 (OVCAR-5): > 100 µM (inactive)
- GI50 (SK-MEL-5): > 100 µM (inactive)
- GI50 (UACC-257): > 100 µM (inactive)
- GI50 (HCT-116): > 100 µM (inactive)
- GI50 (LXFL 529): > 100 µM (inactive)
- GI50 (CCRF-CEM): > 100 µM (inactive)
- GI50 (OVCAR-4): > 100 µM (inactive)
- GI50 (HL-60): > 100 µM (inactive)
- GI50 (RPMI-8226): > 100 µM (inactive)
- GI50 (K562): > 100 µM (inactive)
- GI50 (M14): > 100 µM (inactive)
- GI50 (M19-MEL): > 100 µM (inactive)
- GI50 (786-0): > 100 µM (inactive)
- GI50 (HOP-92): > 100 µM (inactive)
- GI50 (COLO 205): > 100 µM (inactive)
- GI50 (MOLT-4): > 100 µM (inactive)
- GI50 (UO-31): > 100 µM (inactive)
- GI50 (HCT-15): > 100 µM
- GI50 (ACHN): > 100 µM (inactive)
- GI50 (XF498): > 100 µM (inactive)
- GI50 (DLD-1): > 100 µM (inactive)
- GI50 (OVCAR-8): > 100 µM (inactive)
- GI50 (SN12C): > 100 µM (inactive)
- GI50 (TK-10): > 100 µM (inactive)
- GI50 (NCI-H522): > 100 µM (inactive)
- GI50 (SK-OV-3): > 100 µM (inactive)

Compound: COc1ccc2nc3c(c(NCCCN(C)C)c2c1)CCCC3
- GI50 (SNB-19): 21.6 µM (inactive)
- GI50 (SK-MEL-28): 16.9 µM (inactive)
- GI50 (KM12): 12.5 µM (inactive)
- GI50 (RXF 631): 14.9 µM (inactive)
- GI50 (SK-MEL-2): 17.3 µM (inactive)
- GI50 (A498): 20.3 µM (inactive)
- GI50 (DMS-273): 11.8 µM (inactive)
- GI50 (SNB-78): 7.83 µM (inactive)
- GI50 (LOX IMVI): 12.8 µM (inactive)
- GI50 (NCI-H460): 10.3 µM (inactive)
- GI50 (SNB-75): 13.2 µM (inactive)
- GI50 (RXF 393): 14.8 µM (inactive)
- GI50 (UACC-62): 16.8 µM (inactive)
- GI50 (U-251): 15.5 µM (inactive)
- GI50 (CAKI-1): 11.9 µM (inactive)
- GI50 (SF-268): > 10 µM (inactive)
- GI50 (SR): 2.42 µM (inactive)
- GI50 (HOP-62): 16.4 µM (inactive)
- GI50 (A549): 21.4 µM (inactive)
- GI50 (NCI-H23): 17.1 µM (inactive)
- GI50 (Malme-3M): 19.7 µM (inactive)
- GI50 (KM-20L2): 6.7 µM (inactive)
- GI50 (IGROV-1): 19.3 µM (inactive)
- GI50 (SF-539): 16.8 µM (inactive)
- GI50 (NCI-H226): 16.3 µM (inactive)
- GI50 (HCC 2998): 8.81 µM (inactive)
- GI50 (SW-620): 10.7 µM (inactive)
- GI50 (HT-29): 5.41 µM (inactive)
- GI50 (SF-295): 14.6 µM (inactive)
- GI50 (EKVX): 17.4 µM (inactive)
- GI50 (OVCAR-5): 13.5 µM (inactive)
- GI50 (SK-MEL-5): 15.8 µM (inactive)
- GI50 (UACC-257): 17 µM (inactive)
- GI50 (HCT-116): 4.74 µM (inactive)
- GI50 (LXFL 529): 12.7 µM (inactive)
- GI50 (CCRF-CEM): 4.83 µM (inactive)
- GI50 (OVCAR-4): 4.43 µM (inactive)
- GI50 (HL-60): 7.67 µM (inactive)
- GI50 (RPMI-8226): 6.25 µM (inactive)
- GI50 (K562): 2.25 µM (inactive)
- GI50 (M14): 13.3 µM (inactive)
- GI50 (M19-MEL): 17.1 µM (inactive)
- GI50 (786-0): 15.4 µM (inactive)
- GI50 (OVCAR-3): 19.4 µM (inactive)
- GI50 (HOP-92): 5.28 µM (inactive)
- GI50 (COLO 205): 10.8 µM (inactive)
- GI50 (MOLT-4): 3.4 µM (inactive)
- GI50 (UO-31): 16 µM (inactive)
- GI50 (HCT-15): 16.3 µM
- GI50 (ACHN): 20.4 µM (inactive)
- GI50 (XF498): 4.15 µM (inactive)
- GI50 (DLD-1): 7.66 µM (inactive)
- GI50 (OVCAR-8): 15 µM (inactive)
- GI50 (SN12C): 17.2 µM (inactive)
- GI50 (DMS-114): 13.9 µM (inactive)
- GI50 (TK-10): 26.1 µM (inactive)
- GI50 (NCI-H522): 14.9 µM (inactive)
- GI50 (SK-OV-3): 20.5 µM (inactive)
